Data reported in patent US20140343008A1, “HEPATITIS C TREATMENT” (Gilead Pharmasset LLC, priority 2013, published 2014).
Where two headings read alike, the source gives them in different places. Values belong to the molecule of their own block, whether it stands above or below them.

Legend:
[1] = tested on: human colon carcinoma cell line (caco-2); assay: Bidirectional permeability of sofosbuvir in caco-2 monolayers; conditions: for Papp of sofosbuvir, Forward, Average / Papp of sofosbuvir, Forward, Repat 2 / Papp of sofosbuvir, Forward, Repeat 1 / Papp of sofosbuvir, Reverse, Average / Papp of sofosbuvir, Reverse, Repat 2 / Papp of sofosbuvir, Reverse, Repeat 1 / effect of coincubation on permeability/efflux of sofosbuvir, fold increase: human, Caco-2, 120 min, pH 7.4
Description: (§1) Caco-2 human intestinal epithelial cell monolayers cultured for twenty-one to twenty-eight days were plated on 12 well Transwell® dual chamber plates.
(§2) Assays were run in duplicate (n=2) in one to two separate experiments. Assay buffer at pH 7.4 was placed in both chambers. Hanks buffer with 1% BSA was used in receiver compartment.
(§3) Apical side was dosed for apical-to-basolateral (A to B) assessment. Basolateral side was dosed for basolateral-to-apical (B to A) assessment. Donor side was sampled at time points of 0 and 120 minutes.
(§4) Receiver side was sampled at time points: 60 and 120 minutes.
(§5) The apparent permeability, Papp, and % recovery were calculated as follows: […]
(§6) Where, dR/dt is the slope of the cumulative concentration in the receiver compartment versus time in μM/s based on receiver concentrations measured at 60 and 120 minutes. Vr and Vd are the volumes in the receiver and donor compartment in cm^3, respectively. A is the area of the cell monolayer (1.12 cm^2). D0 and D120 are the measured donor concentrations at the beginning and end of the experiment, respectively. R120 is the receiver concentration at the end of the experiment (120 minutes).

[2] = as above; conditions: human, Caco-2, pH 7.4
Description: as §1, §2, §3, §4, §5, §6

[3] = Phase I pharmacokinetic study of the combination of Compound I and sofosbuvir in healthy volunteers; assay type: in vivo, human; conditions: for AUC(0-inf) / Cmax / AUC(0-t) / AUC: both sexes, human; for AUC(0-inf): healthy volunteers, read-out: AUCinf, Mean; for AUC(0-inf) / Cmax / AUC(0-t) / Ctau, Mean / AUC: n = 18; for AUC(0-t): read-out: AUClast, Mean; for AUC: read-out: AUCtau, Mean
Description: This example studied the pharmacokinetics (PK) of the combination of Compound I and sofosbuvir (SOF), along with two metabolites of SOF, Metabolite I and II, in healthy volunteers, as part of a Phase I clinical study for Compound I.
This was a randomized, open label, single-center, multiple-dose study that enrolled Healthy males and non-pregnant, non-lactating females from 18 to 45 years old. The duration of the study was up to 38 days, and duration of the treatment was 28 days.
Additional specific exclusion criteria included, (1) use of over the counter (OTC) or prescribed medications that affect gastric pH (i.e., antacids, H2 receptor antagonists (H2RAs), and/or proton-pump inhibitors (PPIs)) 28 days prior to baseline and (2) history of severe peptic ulcer disease, GERD, or other stomach acid diseases requiring prolonged (>6 months) medication or surgical therapy to modify gastric pH. […]
Plasma concentrations and pharmacokinetic parameters for the compounds were listed and summarized using descriptive statistics by treatment. In addition, an analysis of variance (ANOVA) using a mixed-effects model with treatment, period, sequence as fixed effects and subject within sequence as a random effect were fitted to the natural logarithmic transformation of PK parameters (AUCinf, AUClast, and Cmax).
The 90% confidence intervals were constructed for the ratio of geometric least-squares means of primary PK parameters for each of the test treatments (as shown in Table 1).

[4] = target: T1, BCRP (Homo sapiens, UniProt Q9UNQ0); assay: In vitro drug transporter inhibition, BCRP; assay type: in vitro ADME
T1 sequence (Q9UNQ0 1-655): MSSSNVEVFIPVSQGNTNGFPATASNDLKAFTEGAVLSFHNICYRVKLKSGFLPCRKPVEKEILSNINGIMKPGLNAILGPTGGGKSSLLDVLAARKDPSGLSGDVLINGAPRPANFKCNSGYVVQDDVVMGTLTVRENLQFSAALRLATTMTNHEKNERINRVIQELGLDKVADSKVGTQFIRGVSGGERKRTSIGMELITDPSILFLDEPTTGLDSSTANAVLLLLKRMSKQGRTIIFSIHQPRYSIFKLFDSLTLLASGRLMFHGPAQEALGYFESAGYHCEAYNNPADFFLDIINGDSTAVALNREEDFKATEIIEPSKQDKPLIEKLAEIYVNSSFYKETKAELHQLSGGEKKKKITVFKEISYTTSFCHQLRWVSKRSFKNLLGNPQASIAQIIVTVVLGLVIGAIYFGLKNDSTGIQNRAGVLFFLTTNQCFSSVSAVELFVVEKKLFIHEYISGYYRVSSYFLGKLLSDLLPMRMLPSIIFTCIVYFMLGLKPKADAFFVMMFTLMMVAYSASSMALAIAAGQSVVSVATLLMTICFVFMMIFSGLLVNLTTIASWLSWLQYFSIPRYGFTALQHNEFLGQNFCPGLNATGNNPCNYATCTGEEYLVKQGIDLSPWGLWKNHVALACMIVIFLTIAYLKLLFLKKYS
Description: (§7) Based on the results of Example 1, it was contemplated that Compound I increased the exposure of sofosbuvir by inhibiting the activities of one or more drug transporters. This example carried out in vitro experiments to test whether Compound I inhibited any of the potentially relevant drug transporters, […], BCRP and P-gp.

[5] = target: P-gp (Homo sapiens, UniProt P08183); assay: In vitro drug transporter inhibition, P-gp; assay type: in vitro ADME
Sequence of P-gp (P08183 whole entry): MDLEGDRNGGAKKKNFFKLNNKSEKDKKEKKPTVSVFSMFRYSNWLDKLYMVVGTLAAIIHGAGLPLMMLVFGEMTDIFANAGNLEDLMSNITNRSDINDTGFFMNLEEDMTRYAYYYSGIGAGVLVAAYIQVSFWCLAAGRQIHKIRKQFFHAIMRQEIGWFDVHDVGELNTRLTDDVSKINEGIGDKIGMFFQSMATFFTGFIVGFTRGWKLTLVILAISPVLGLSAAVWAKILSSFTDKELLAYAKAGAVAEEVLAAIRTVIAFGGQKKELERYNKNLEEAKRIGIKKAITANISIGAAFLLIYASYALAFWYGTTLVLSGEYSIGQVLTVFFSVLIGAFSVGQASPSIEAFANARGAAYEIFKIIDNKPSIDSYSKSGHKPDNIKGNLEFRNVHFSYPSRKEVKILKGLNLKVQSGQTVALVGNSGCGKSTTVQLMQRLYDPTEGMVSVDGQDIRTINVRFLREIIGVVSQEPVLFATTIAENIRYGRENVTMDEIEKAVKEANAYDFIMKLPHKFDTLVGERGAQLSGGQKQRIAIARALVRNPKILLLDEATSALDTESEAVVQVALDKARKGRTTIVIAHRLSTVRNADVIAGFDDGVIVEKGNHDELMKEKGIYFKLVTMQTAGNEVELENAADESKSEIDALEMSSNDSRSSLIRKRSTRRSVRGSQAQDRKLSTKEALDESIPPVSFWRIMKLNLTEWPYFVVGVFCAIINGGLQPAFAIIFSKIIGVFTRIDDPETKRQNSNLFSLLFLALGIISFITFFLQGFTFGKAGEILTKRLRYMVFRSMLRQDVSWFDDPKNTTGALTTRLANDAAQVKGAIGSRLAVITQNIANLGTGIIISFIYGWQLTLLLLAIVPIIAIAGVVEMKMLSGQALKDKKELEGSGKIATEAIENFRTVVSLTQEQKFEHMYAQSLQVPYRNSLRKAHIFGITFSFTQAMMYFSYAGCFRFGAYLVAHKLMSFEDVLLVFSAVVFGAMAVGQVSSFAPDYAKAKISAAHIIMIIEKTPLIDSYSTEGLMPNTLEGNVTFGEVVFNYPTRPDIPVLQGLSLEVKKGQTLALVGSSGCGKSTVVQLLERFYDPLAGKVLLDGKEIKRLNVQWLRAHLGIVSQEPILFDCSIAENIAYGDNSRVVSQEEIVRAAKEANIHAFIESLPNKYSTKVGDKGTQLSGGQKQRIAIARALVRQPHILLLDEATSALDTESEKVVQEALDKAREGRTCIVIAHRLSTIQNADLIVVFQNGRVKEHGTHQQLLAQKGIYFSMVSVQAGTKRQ
Description: as §7

[6] = in vivo, plasma analyte after SOF + Comp I
[7] = in vivo, plasma analyte after SOF alone
[8] = co-administration with Compound I versus SOF alone
[9] = SOF + Comp I versus Comp I alone
[10] = plasma, oral, 100 mg, Comp I alone

Papp of sofosbuvir, Forward, Average [1]: 11.1 10^−6 cm/s
Papp of sofosbuvir, Forward, Repat 2 [1]: 0.92 10^−6 cm/s
Papp of sofosbuvir, Forward, Repeat 1 [1]: 0.46 10^−6 cm/s
Papp of sofosbuvir, Reverse, Average [1]: 1.09 10^−6 cm/s
Papp of sofosbuvir, Reverse, Repat 2 [1]: 11.7 10^−6 cm/s
Papp of sofosbuvir, Reverse, Repeat 1 [1]: 10.5 10^−6 cm/s
effect of coincubation on permeability/efflux of sofosbuvir, fold increase [1]: ~2 fold
Molecule: Fc1ccccc1-c1nc2ccn(Cc3ccc(-c4ccc(C(F)(F)F)cc4C(F)(F)F)nn3)cc-2n1 [Compound V, 5-((6-(2,4-bis(trifluoromethyl)phenyl)pyridazin-3-yl)methyl)-2-(2-fluorophenyl)-5H-imidazo[4,5-c]pyridine]

permeability through caco-2 cells (in words) ([1]; Caco-2): indicated appropriate membrane integrity
Molecule: lucifer yellow [reference compound]

permeability through caco-2 cells (in words) ([1]; Caco-2): high permeability
Molecule: CC(C)NCC(O)COc1cccc2ccccc12 (stereo not shown) [Propranolol, reference compound]

The next lines start with the molecule.

Molecule: CC1=CC[C@H](C(=O)N(c2cc(C#CC(C)(C)C)sc2C(=O)O)[C@H]2CC[C@](O)(CO[C@H]3CCOC3)CC2)CC1 [Compound III, 5-(3,3-dimethylbutyn-1-yl)-3-[(cis-4-hydroxy-4-{[(3S)-tetrahydrofuran-3-yloxy]methyl}cyclohexyl) {[(1R)-4-methylcyclohex-3-en-1-yl]carbonyl}amino]thiophene-2-carboxylic acid]
Papp of sofosbuvir, Forward, Average [1]: 0.3 10^−6 cm/s
Papp of sofosbuvir, Forward, Repat 2 [1]: 0.28 10^−6 cm/s
Papp of sofosbuvir, Forward, Repeat 1 [1]: 0.31 10^−6 cm/s
Papp of sofosbuvir, Reverse, Average [1]: 6.93 10^−6 cm/s
Papp of sofosbuvir, Reverse, Repat 2 [1]: 6.82 10^−6 cm/s
Papp of sofosbuvir, Reverse, Repeat 1 [1]: 7.05 10^−6 cm/s
effect of coincubation on permeability/efflux of sofosbuvir, fold increase [1]: ~2 fold

Molecule: CC(C)OC(=O)[C@H](C)N[P@](=O)(OC[C@H]1O[C@@H](n2ccc(=O)[nH]c2=O)[C@](C)(F)[C@@H]1O)Oc1ccccc1 [Sofosbuvir, (S)-isopropyl 2-(((S)-(((2R,3R,4R,5R)-5-(2,4-dioxo-3,4-dihydropyrimidin-1(2H)-yl)-4-fluoro-3-hydroxy-4-methyltetrahydrofuran-2-yl)methoxy)(phenoxy)phosphoryl)amino)propanoate]
permeability through caco-2 cells (in words) ([1]; sofosbuvir alone at 10 μM, control compounds for acceptance criteria): low permeability
Papp A→B at 120 min, 10 μM [2]: 2.5 nm/s
efflux ratio at 120 min, 10 μM [2]: 43.6
AUCinf, % GMR ([3]; SOF + Comp I versus SOF alone): 238%
AUClast, % GMR ([3]; SOF + Comp I versus SOF alone): 238%
Cmax, % GMR ([3]; SOF + Comp I versus SOF alone): 181%
AUC(0-inf) ([3]; in vivo, plasma analyte after SOF + Comp I (100 mg)): 2.86 µg·h/mL
Cmax [3, 6]: 1.67 µg/mL
AUC(0-t) [3, 6]: 2.85 µg·h/mL
AUC(0-inf) [3, 7]: 1.2 µg·h/mL
Cmax [3, 7]: 0.964 µg/mL
AUC(0-t) [3, 7]: 1.2 µg·h/mL
AUC increase by Compound I [3, 8]: ~2.4 fold
Cmax increase by Compound I [3, 8]: ~1.8 fold

Molecule: C[C@H]1O[C@@H](O[C@H]2[C@@H](O)C[C@H](O[C@H]3[C@@H](O)C[C@H](O[C@H]4CC[C@@]5(C)[C@H](CC[C@@H]6[C@@H]5C[C@@H](O)[C@]5(C)[C@@H](C7=CC(=O)OC7)CC[C@]65O)C4)O[C@@H]3C)O[C@@H]2C)C[C@H](O)[C@@H]1O [digoxin, reference compound]
transport of control transport substrate ([1]; control): Transport was observed

Molecule: COC[C@H]1C[C@@H](c2ncc(-c3ccc4c(c3)COc3cc5c(ccc6nc([C@@H]7CC[C@H](C)N7C(=O)[C@@H](NC(=O)OC)C(C)C)[nH]c65)cc3-4)[nH]2)N(C(=O)[C@H](NC(=O)OC)c2ccccc2)C1 [Compound I, methyl {(2S)-1-[(2S,5S)-2-(9-{2-[(2S,4S)-1-{(2R)-2-[(methoxycarbonyl)amino]-2-phenylacetyl}-4-(methoxymethyl)pyrrolidin-2-yl]-1H-imidazol-5-yl}-1,11-dihydroisochromeno[4′,3′:6,7]naphtho[1,2-d]imidazol-2-yl)-5-methylpyrrolidin-1-yl]-3-methyl-1-oxobutan-2-yl}carbamate]
Papp of sofosbuvir, Forward, Average [1]: 0.66 10^−6 cm/s
Papp of sofosbuvir, Forward, Repat 2 [1]: 0.6 10^−6 cm/s
Papp of sofosbuvir, Forward, Repeat 1 [1]: 0.73 10^−6 cm/s
Papp of sofosbuvir, Reverse, Average [1]: 7.39 10^−6 cm/s
Papp of sofosbuvir, Reverse, Repat 2 [1]: 7.56 10^−6 cm/s
Papp of sofosbuvir, Reverse, Repeat 1 [1]: 7.22 10^−6 cm/s
effect of coincubation on permeability/efflux of sofosbuvir, fold increase [1]: ~4 fold
Ctau, Mean ([3]; Comp I alone): 113 ng/mL
AUCtau, % GMR [3, 9]: 112%
Cmax, % GMR [3, 9]: 106%
Ctau, % GMR [3, 9]: 118%
Ctau, Mean ([3]; SOF + Comp I): 135 ng/mL
Cmax [3, 10]: 0.963 µg/mL
AUC [3, 10]: 7.69 µg·h/mL
Cmax ([3]; plasma, oral, Compound I analyte, SOF + Comp I): 1.02 µg/mL
AUC ([3]; plasma, oral, SOF + Comp I): 8.6 µg·h/mL
inhibition of BCRP [4]: not on other tested transporters
inhibition of P-gp [5]: marked inhibition
